Measurements taken from patent publication US11708348B2, “Protease inhibitors for treatment of coronavirus infections” (The Scripps Research Institute, priority 2021, dated 2023).

Test system: SARS-CoV-2 strain USA-WA1/2020
Experiment: microbe, parasite or virus in culture
Format: cell-based
Conditions: Severe acute respiratory syndrome coronavirus 2, HeLa-ACE2, 24 h, HeLa-ACE2 cells, SARS-CoV-2 infection, 24 h; class symbols; read-out: EC50, uM (Hela)

Compound | EC50
CC(C)(C)CC(O)C(=O)N1CC2(CC2)C[C@H]1C(=O)N[C@@H](C[C@@H]1CCNC1=O)C(=O)COC(F)(F)F (stereo partly drawn) [Compound 346, (6S)-5-(2-hydroxy-4,4-dimethylpentanoyl)-N-((S)-3-oxo-1-((S)-2-oxopyrrolidin-3-yl)-4-(trifluoromethoxy)butan-2-yl)-5-azaspiro[2.4]heptane-6-carboxamide] | < 0.05 µM
CC(C)(C)CC(O)C(=O)N1C[C@H]2[C@@H]([C@H]1C(=O)N[C@@H](C[C@@H]1CCNC1=O)C(=O)COC(F)(F)F)C2(C)C (stereo partly drawn) [Compound 347, (1R,2S,5S)-3-(2-hydroxy-4,4-dimethylpentanoyl)-6,6-dimethyl-N-((S)-3-oxo-1-((S)-2-oxopyrrolidin-3-yl)-4-(trifluoromethoxy)butan-2-yl)-3-azabicyclo-[3.1.0]hexane-2-carboxamide] | < 0.05 µM
CC(C)(C)CC(O)C(=O)N1C[C@@H]2CCC[C@@H]2[C@H]1C(=O)N[C@@H](C[C@@H]1CCNC1=O)C(=O)COC(F)(F)F (stereo partly drawn) [Compound 348, (1S,3aR,6aS)-2-(2-hydroxy-4,4-dimethylpentanoyl)-N-((S)-3-oxo-1-((S)-2-oxopyrrolidin-3-yl)-4-(trifluoromethoxy)butan-2-yl)octahydrocyclo-penta[c]pyrrole-1-carboxamide] | < 0.05 µM
CC(C)(C)C[C@H](O)C(=O)N1CC2(CC2)C[C@H]1C(=O)N[C@@H](C[C@@H]1CCNC1=O)C(=O)COC(F)(F)F [Compound 349, (S)-5-((S)-2-hydroxy-4,4-dimethylpentanoyl)-N-((S)-3-oxo-1-((S)-2-oxopyrrolidin-3-yl)-4-(trifluoromethoxy)butan-2-yl)-5-azaspiro[2.4]heptane-6-carboxamide] | < 0.05 µM
CC(C)(F)C[C@H](O)C(=O)N1CC2(CC2)C[C@H]1C(=O)N[C@@H](C[C@@H]1CCNC1=O)C(=O)COC(F)(F)F [Compound 350, (S)-5-((S)-4-fluoro-2-hydroxy-4-methylpentanoyl)-N-((S)-3-oxo-1-((S)-2-oxopyrrolidin-3-yl)-4-(trifluoromethoxy)butan-2-yl)-5-azaspiro[2.4]-heptane-6-carboxamide] | 0.05 to 0.2 µM
CC(C)(O)C(=O)N1C[C@H]2[C@@H]([C@H]1C(=O)N[C@@H](C[C@@H]1CCNC1=O)C(=O)COC(F)(F)F)C2(C)C [Compound 351, (1R,2S,5S)-3-(2-hydroxy-2-methylpropanoyl)-6,6-dimethyl-N-((S)-3-oxo-1-((S)-2-oxopyrrolidin-3-yl)-4-(trifluoromethoxy)butan-2-yl)-3-azabicyclo-[3.1.0]hexane-2-carboxamide] | 0.05 to 0.2 µM
CC(C)(O)C(=O)N1C[C@@H]2CCC[C@@H]2[C@H]1C(=O)N[C@@H](C[C@@H]1CCNC1=O)C(=O)COC(F)(F)F [Compound 352, (1S,3aR,6aS)-2-(2-hydroxy-2-methylpropanoyl)-N-((S)-3-oxo-1-((S)-2-oxopyrrolidin-3-yl)-4-(trifluoromethoxy)butan-2-yl)octahydrocyclo-penta[c]pyrrole-1-carboxamide] | 0.05 to 0.2 µM
CC(C)C[C@H](NC(=O)C(C)(C)O)C(=O)N[C@@H](C[C@@H]1CCNC1=O)C(=O)COC(F)(F)F [Compound 353, (S)-2-(2-hydroxy-2-methylpropanamido)-4-methyl-N-((S)-3-oxo-1-((S)-2-oxopyrrolidin-3-yl)-4-(trifluoromethoxy)butan-2-yl)pentanamide] | 0.05 to 0.2 µM
CC(C)(O)C(=O)N1CC2(CC2)C[C@H]1C(=O)N[C@@H](C[C@@H]1CCNC1=O)C(=O)COC(F)(F)F [Compound 354, (S)-5-(2-hydroxy-2-methylpropanoyl)-N-((S)-3-oxo-1-((S)-2-oxopyrrolidin-3-yl)-4-(trifluoromethoxy)butan-2-yl)-5-azaspiro[2.4]-heptane-6-carboxamide] | 0.05 to 0.2 µM
CC(C)C[C@H](NC(=O)[C@H](O)C(C)C)C(=O)N[C@@H](C[C@@H]1CCNC1=O)C(=O)COC(F)(F)F [Compound 355, (S)-2-((R)-2-hydroxy-3-methylbutanamido)-4-methyl-N-((S)-3-oxo-1-((S)-2-oxopyrrolidin-3-yl)-4-(trifluoromethoxy)butan-2-yl)pentanamide] | 0.05 to 0.2 µM
CC(C)[C@@H](O)C(=O)N1CC2(CC2)C[C@H]1C(=O)N[C@@H](C[C@@H]1CCNC1=O)C(=O)COC(F)(F)F [Compound 356, (S)-5-((R)-2-hydroxy-3-methylbutanoyl)-N-((S)-3-oxo-1-((S)-2-oxopyrrolidin-3-yl)-4-(trifluoromethoxy)butan-2-yl)-5-azaspiro[2.4]heptane-6-carboxamide] | 0.05 to 0.2 µM
CC(C)[C@@H](O)C(=O)N1C[C@H]2[C@@H]([C@H]1C(=O)N[C@@H](C[C@@H]1CCNC1=O)C(=O)COC(F)(F)F)C2(C)C [Compound 357, (1R,2S,5S)-3-((R)-2-hydroxy-3-methylbutanoyl)-6,6-dimethyl-N-((S)-3-oxo-1-((S)-2-oxopyrrolidin-3-yl)-4-(trifluoromethoxy)butan-2-yl)-3-azabicyclo-[3.1.0]hexane-2-carboxamide] | 0.05 to 0.2 µM
CC(C)[C@H](O)C(=O)N1CC2(CC2)C[C@H]1C(=O)N[C@@H](C[C@@H]1CCNC1=O)C(=O)COC(F)(F)F [Compound 358, (S)-5-((S)-2-hydroxy-3-methylbutanoyl)-N-((S)-3-oxo-1-((S)-2-oxopyrrolidin-3-yl)-4-(trifluoromethoxy)butan-2-yl)-5-azaspiro-[2.4]heptane-6-carboxamide] | 0.05 to 0.2 µM
CC(C)[C@@H](O)C(=O)N1C[C@@H]2CCC[C@@H]2[C@H]1C(=O)N[C@@H](C[C@@H]1CCNC1=O)C(=O)COC(F)(F)F [Compound 359, (1S,3aR,6aS)-2-((R)-2-hydroxy-3-methylbutanoyl)-N-((S)-3-oxo-1-((S)-2-oxopyrrolidin-3-yl)-4-(trifluoromethoxy)butan-2-yl)octahydrocyclo-penta[c]pyrrole-1-carboxamide] | 0.05 to 0.2 µM
CC(C)CC(C)(O)C(=O)N1CC2(CC2)C[C@H]1C(=O)N[C@@H](C[C@@H]1CCNC1=O)C(=O)COC(F)(F)F (stereo partly drawn) [Compound 360, (6S)-5-(2-hydroxy-2,4-dimethylpentanoyl)-N-((S)-3-oxo-1-((S)-2-oxopyrrolidin-3-yl)-4-(trifluoromethoxy)butan-2-yl)-5-azaspiro[2.4]-heptane-6-carboxamide] | < 0.05 µM
CC(C)C[C@@H](O)C(=O)N1C[C@H]2[C@@H]([C@H]1C(=O)N[C@@H](C[C@@H]1CCNC1=O)C(=O)COC(F)(F)F)C2(C)C [Compound 361, (1R,2S,5S)-3-((R)-2-hydroxy-4-methylpentanoyl)-6,6-dimethyl-N-((S)-3-oxo-1-((S)-2-oxopyrrolidin-3-yl)-4-(trifluoromethoxy)butan-2-yl)-3-azabicyclo-[3.1.0]hexane-2-carboxamide] | < 0.05 µM
CC(C)C[C@@H](O)C(=O)N1C[C@@H]2CCC[C@@H]2[C@H]1C(=O)N[C@@H](C[C@@H]1CCNC1=O)C(=O)COC(F)(F)F [Compound 363, (1S,3aR,6aS)-2-((R)-2-hydroxy-4-methylpentanoyl)-N-((S)-3-oxo-1-((S)-2-oxopyrrolidin-3-yl)-4-(trifluoromethoxy)butan-2-yl)octahydrocyclo-penta[c]pyrrole-1-carboxamide] | < 0.05 µM
